Laboratory results published in PubChem BioAssay (NCI).
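Where inhibition never reached the appropriate level, the endpoint shown equals the highest concentration tested. Otherwise, values were interpolated linearly from a five-concentration, 48-hour dose response in 96-well plates. Here, GI50 denotes the concentration required for 50% inhibition of growth. TGI: concentration producing complete growth inhibition.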

How the values were obtained:
Assay in all cases: inhibition of tumour cell growth, NCI panel, 48 h
[1] = tested on: HS 578T breast
[2] = tested on: SNB-19 CNS
[3] = tested on: OVCAR-4 ovarian
[4] = tested on: T-47D breast
[5] = tested on: UACC-257 melanoma
[6] = tested on: EKVX NSCLC
[7] = tested on: K-562 leukemia
[8] = tested on: MALME-3M melanoma
[9] = tested on: MDA-MB-231 breast
[10] = tested on: SF-539 CNS
[11] = tested on: HCT-15 colon
[12] = tested on: NCI-H226 lung
[13] = tested on: COLO 205 colon
[14] = tested on: SK-MEL-5 melanoma
[15] = tested on: LOX IMVI melanoma
[16] = tested on: IGROV1 ovarian
[17] = tested on: A549 NSCLC
[18] = tested on: A498 renal
[19] = tested on: TK-10 renal
[20] = tested on: OVCAR-8 ovarian
[21] = tested on: SK-OV-3 ovarian
[22] = tested on: CAKI-1 renal
[23] = tested on: HCT-116 colon
[24] = tested on: U251 CNS
[25] = tested on: ACHN renal
[26] = tested on: HL-60(TB) leukemia
[27] = tested on: SK-MEL-28 melanoma
[28] = tested on: HOP-62 NSCLC
[29] = tested on: NCI-H522 lung
[30] = tested on: SW-620 colon
[31] = tested on: NCI-H460 lung
[32] = tested on: OVCAR-3 ovarian
[33] = tested on: RPMI-8226 leukemia
[34] = tested on: UO-31 renal
[35] = tested on: HOP-92 NSCLC
[36] = tested on: RXF 393 renal
[37] = tested on: CCRF-CEM leukemia
[38] = tested on: 786-0 renal
[39] = tested on: SK-MEL-2 melanoma
[40] = tested on: SF-295 CNS
[41] = tested on: M14 melanoma
[42] = tested on: DU-145 prostate
[43] = tested on: MDA-MB-435
[44] = tested on: SR leukemia
[45] = tested on: HT29 colon
[46] = tested on: KM12 colon
[47] = tested on: SNB-75 CNS
[48] = tested on: MOLT-4 leukemia
[49] = tested on: BT-549 breast
[50] = tested on: SF-268 CNS
[51] = tested on: SN12C renal
[52] = tested on: NCI/ADR-RES ovarian
[53] = tested on: UACC-62 melanoma
[54] = tested on: MCF7 breast
[55] = tested on: PC-3 prostate
[56] = tested on: NCI-H23 lung
[57] = tested on: OVCAR-5 ovarian

## CCOC(=O)c1c(C)n(Cc2ccc(Cl)cc2Cl)c2c1cc1oc(=O)c(=O)n3cnc2c13
[1]
  GI50: 24.1 µM
  TGI: 64.2 µM
[2]
  GI50: 17.4 µM
  TGI: 32.1 µM
[3]
  GI50: 11.9 µM
  TGI: 27.6 µM
[4]
  GI50: 12.8 µM
  TGI: 27.7 µM
[5]
  GI50: 9.51 µM
  TGI: 21.7 µM
[6]
  GI50: 23.2 µM
  TGI: 43.3 µM
[7]
  GI50: 5.14 µM
  TGI: 22.6 µM
[8]
  GI50: 10.4 µM
  TGI: 25.5 µM
[9]
  GI50: 15.7 µM
  TGI: 31.4 µM
[10]
  GI50: 20.6 µM
  TGI: 38.3 µM
[11]
  GI50: 13.7 µM
  TGI: 27.3 µM
[12]
  GI50: 19.7 µM
  TGI: 39.5 µM
[13]
  GI50: 17 µM
  TGI: 33.3 µM
[14]
  GI50: 18 µM
  TGI: 34.3 µM
[15]
  GI50: 14.2 µM
  TGI: 27.3 µM
[16]
  GI50: 17.8 µM
  TGI: 34 µM
[17]
  GI50: 9.71 µM
  TGI: 21.9 µM
[18]
  GI50: 20.6 µM
  TGI: 36.1 µM
[19]
  GI50: 17.4 µM
  TGI: 33 µM
[20]
  GI50: 7.68 µM
  TGI: 25.8 µM
[21]
  GI50: 23.5 µM
  TGI: 38.3 µM
[22]
  GI50: 17 µM
  TGI: 32.3 µM
[23]
  GI50: 18.6 µM
  TGI: 36 µM
[24]
  GI50: 14.7 µM
  TGI: 27.9 µM
[25]
  GI50: 14.4 µM
  TGI: 27.5 µM
[26]
  GI50: 5.43 µM
  TGI: 28.2 µM
[27]
  GI50: 14.2 µM
  TGI: 31.7 µM
[28]
  GI50: 15.5 µM
  TGI: 33.1 µM
[29]
  GI50: 16.4 µM
  TGI: 32.9 µM
[30]
  GI50: 22.1 µM
  TGI: 40.5 µM
[31]
  GI50: 7.78 µM
  TGI: 20 µM
[32]
  GI50: 14.4 µM
  TGI: 31.9 µM
[33]
  GI50: 6.32 µM
  TGI: 21.8 µM
[34]
  GI50: 16.1 µM
  TGI: 31.8 µM
[35]
  GI50: 13.9 µM
  TGI: 27.2 µM
[36]
  GI50: 4.16 µM
  TGI: 15.3 µM
[37]
  GI50: 6.31 µM
  TGI: 20.4 µM
[38]
  GI50: 18.3 µM
  TGI: 34.9 µM
[39]
  GI50: 22.5 µM
  TGI: 56.5 µM
[40]
  GI50: 21.1 µM
  TGI: 43.1 µM
[41]
  GI50: 22.3 µM
  TGI: 41.6 µM
[42]
  GI50: 17.3 µM
  TGI: 32.9 µM
[43]
  GI50: 16.3 µM
  TGI: 30.9 µM
[44]
  GI50: 1.09 µM
  TGI: 5.85 µM
[45]
  GI50: 11 µM
  TGI: 37.8 µM
[46]
  GI50: 11.6 µM
  TGI: 26 µM
[47]
  GI50: 3.39 µM
  TGI: 15.3 µM
[48]
  GI50: 3.99 µM
  TGI: 20.7 µM
[49]
  GI50: 21.6 µM
  TGI: 40.9 µM
[50]
  GI50: 16.3 µM
  TGI: 33.3 µM
[51]
  GI50: 19 µM
  TGI: 35.2 µM

## COc1ccc(/C=C/C(=O)c2ccc(-n3cc(CN4CCN(c5cc6c(cc5F)c(=O)c(C(=O)O)cn6C5CC5)CC4)nn3)cc2)cc1OC
[1]
  GI50: 3.91 µM
  TGI: > 100 µM
[2]
  GI50: 4.52 µM
  TGI: 66.7 µM
[3]
  GI50: 3.94 µM
  TGI: 15.5 µM
[4]
  GI50: 3.16 µM
  TGI: > 100 µM
[5]
  GI50: 6.34 µM
  TGI: > 100 µM
[6]
  GI50: 4.24 µM
  TGI: > 100 µM
[7]
  GI50: 0.977 µM
  TGI: > 100 µM
[8]
  GI50: 2.59 µM
  TGI: 8.41 µM
[9]
  GI50: 3.2 µM
  TGI: > 100 µM
[10]
  GI50: 1.91 µM
  TGI: 4.39 µM
[11]
  GI50: 2.25 µM
  TGI: > 100 µM
[12]
  GI50: 2.39 µM
  TGI: 6.63 µM
[13]
  GI50: 5.09 µM
  TGI: > 100 µM
[14]
  GI50: 2.64 µM
  TGI: 7.74 µM
[17]
  GI50: 2.98 µM
  TGI: > 100 µM
[18]
  GI50: 4.18 µM
  TGI: 14.4 µM
[19]
  GI50: 5.61 µM
  TGI: > 100 µM
[20]
  GI50: 4.03 µM
  TGI: > 100 µM
[21]
  GI50: 7.09 µM
  TGI: > 100 µM
[22]
  GI50: 5.1 µM
  TGI: 19 µM
[24]
  GI50: 1.48 µM
  TGI: > 100 µM
[52]
  GI50: > 100 µM
  TGI: > 100 µM
[25]
  GI50: 3.5 µM
  TGI: 45.2 µM
[26]
  GI50: 3.18 µM
  TGI: > 100 µM
[27]
  GI50: 2.77 µM
  TGI: 10.4 µM
[28]
  GI50: 2.49 µM
  TGI: > 100 µM
[29]
  GI50: 4.25 µM
  TGI: > 100 µM
[30]
  GI50: 1.37 µM
  TGI: 6.98 µM
[31]
  GI50: 2.4 µM
  TGI: 6.66 µM
[53]
  GI50: 2.83 µM
  TGI: 8.84 µM
[32]
  GI50: 1.84 µM
  TGI: 4.93 µM
[33]
  GI50: 0.401 µM
  TGI: 4.46 µM
[34]
  GI50: 1.73 µM
  TGI: 9.01 µM
[35]
  GI50: 11.7 µM
  TGI: 38.3 µM
[37]
  GI50: 2.63 µM
  TGI: > 100 µM
[39]
  GI50: 21.1 µM
  TGI: > 100 µM
[54]
  GI50: 0.396 µM
  TGI: > 100 µM
[55]
  GI50: 2.54 µM
  TGI: 15.7 µM
[40]
  GI50: 2.91 µM
  TGI: > 100 µM
[42]
  GI50: 3.67 µM
  TGI: 34.9 µM
[43]
  GI50: 1.49 µM
  TGI: 4.67 µM
[44]
  GI50: 0.434 µM
  TGI: > 100 µM
[45]
  GI50: 1.24 µM
  TGI: > 100 µM
[46]
  GI50: 1.57 µM
  TGI: 4.46 µM
[47]
  GI50: 1.49 µM
  TGI: 4.29 µM
[56]
  GI50: 2.97 µM
  TGI: 22.3 µM
[48]
  GI50: 3.32 µM
  TGI: > 100 µM
[50]
  GI50: 3.09 µM
  TGI: > 100 µM
[57]
  GI50: 3.7 µM
  TGI: 25.7 µM
[51]
  GI50: 2.66 µM
  TGI: 10 µM

## C[N+](C)(C)C(CSSCC(C(=O)[O-])[N+](C)(C)C)C(=O)[O-] (configuration not stated)
[35]
  GI50: 72.1 µM
[43]
  GI50: 25.5 µM
  TGI: 71.2 µM
[47]
  GI50: 32.5 µM

## O=C1NC(=O)C(Cc2cccc(OCc3ccccc3)c2)C(=O)N1
[44]
  GI50: 4.07 µg/mL
